Consider eight molecules from patent publication US9675077B2, “Composition comprising antimicrobial metal ions and a quaternary cationic surfactant” (CONVATEC TECHNOLOGIES INC., priority 2011, dated 2017).

The subject of test [1] is bacterial biofilms. As to the kind of experiment: MBEC (Minimum Biofilm Eradication Concentration) assay using the Calgary Biofilm Device. The format is cell-based. The following applies: for MBEC for the metal ion, Without DDAC: metal ion solution alone, adjusted to approx. pH 5.5; for MBEC for the metal ion, Without DDAC / MBEC for the metal ion, With 0.1% DDAC: lowest concentration at which activity was observed, values approximate; for MBEC for the metal ion, With 0.1% DDAC: metal ion solution in combination with 0.1% DDAC, approx. pH 5.5; for Synergy: metal ion with 0.1% DDAC versus metal ion without DDAC.

For test [2], the system named is a range of microorganisms in the biofilm state.

For iron (III) sulphate hydrate, in test [1], the “MBEC for the metal ion, Without DDAC” value was over 1000 ppm; the “MBEC for the metal ion, With 0.1% DDAC” value was “≦0.24 ppm”; the Synergy entry is reported as “+ve”.
zinc sulphate heptahydrate: in test [1], the “MBEC for the metal ion, Without DDAC” value is listed as over 1000 ppm; the “MBEC for the metal ion, With 0.1% DDAC” value is “≦125 ppm”; the Synergy result is reported as “+ve”.
The like results for `O.O.O.O.O.O.O.O=S(=O)([O-])[O-].[Fe+2]` [Iron (II), iron (II) sulphate heptahydrate] were, in that order, over 1000 ppm, “≦0.24 ppm” and “+ve”.
The like results for `O=[N+]([O-])[O-].O=[N+]([O-])[O-].O=[N+]([O-])[O-].[Ga+3]` [Gallium, gallium (III) nitrate] were, in that order, over 1000 ppm, “≦0.24 ppm” and “+ve”.
On to `O=[N+]([O-])[O-].[Ag+]` [Silver, silver nitrate], for which the “Effectiveness against biofilms in the MBEC model” value in test [1] (0.01% w/w silver, 0.1M acetate buffer, pH 4.7 to 7.7, no surfactant) is listed as “None of the 0.01% silver solutions pH buffered in the range 4.7 to 7.7 were effective against biofilms”. In test [1], the “MBEC for the metal ion, Without DDAC” value is given as 12.5 ppm; the “MBEC for the metal ion, With 0.1% DDAC” value was found to be 0.097 ppm; the Synergy result is “+ve”.
On to `O.O.O.O.[Cl][Mn][Cl]` [Manganese, manganese (II) chloride tetrahydrate], for which, in test [1], the “MBEC for the metal ion, Without DDAC” value is listed as over 1000 ppm; the “MBEC for the metal ion, With 0.1% DDAC” value was “≦0.24 ppm”; the Synergy result is listed as “+ve”.
Turning to `O=C(O)CN(CCN(CC(=O)O)CC(=O)O)CC(=O)O` [EDTA, ethylenediaminetetra-acetic acid], the “Effect of EDTA on the synergistic antimicrobial activity of cationic surfactant and metal ion” value in test [1] ([…] w/w di-sodium EDTA in each test solution) was “further enhances the synergistic antimicrobial activity”. Also, in test [2], the “EDTA concentration effective in making biofilm microorganisms vulnerable to antimicrobial agents” value is reported as 0.25-0.5 % weight by volume.
For copper (II) nitrate trihydrate, in test [1], the “MBEC for the metal ion, Without DDAC” value is listed as 15.6 ppm; the “MBEC for the metal ion, With 0.1% DDAC” value was found to be 1.95 ppm; the Synergy result is reported as “+ve”.
